Measured values reported in patent US20190133128A1, “Fungicidal pyridazinones” (FMC Corporation, priority 2017, published 2019).

Assays:
Assay type in all cases: in vivo
Botrytis cinerea = test: Test C: preventive spray on tomato seedlings, gray mold, visual disease rating
How it was run: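 Compounds predissolved in acetone (3% of final volume), then suspended in 50/50 acetone/water with PEG400 surfactant. Sprayed preventively at 250 ppm or other indicated rate to run-off on tomato seedlings before Botrytis challenge; disease rated visually.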

Plasmopara viticola = test: Test B: preventive spray on grape seedlings, grape downy mildew, disease rating
Source text: General protocol for preparing test solutions for Tests AG: the test compounds were first dissolved in acetone in an amount equal to 3% of the final volume and then suspended at the desired concentration (in ppm) in acetone and purified water (50/50 mix by volume) containing the surfactant PEG400 (polyhydric alcohol esters). The resulting test suspensions were then used in Tests AG. Compounds were sprayed at a concentration of 250 ppm or other indicated rate to the point of run-off on the test plants. The test solution was sprayed to the point of run-off on grape seedlings. […] A dash (-) indicates no test results.

[1] = system: Puccinia recondita f. sp. tritici; test: Test F: preventive spray on wheat seedlings, wheat leaf rust, visual disease rating
How it was run: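 Compounds were dissolved in acetone/water (50/50) with PEG400 surfactant and sprayed to run-off on wheat seedlings, at 250 ppm unless another rate is indicated. The next day, seedlings were inoculated with a Puccinia recondita f. sp. tritici spore suspension; disease was rated visually.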

Phakopsora pachyrhizi = test: Test A: preventive spray on soybean seedlings, Asian soybean rust, visual disease rating
[2] = system: Erysiphe graminis f. sp. tritici; test: Test G: preventive spray on wheat seedlings, wheat powdery mildew, visual disease rating
How it was run: (§1)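 Preventive foliar spray of wheat seedlings to run-off, at 250 ppm or other indicated rate. Compounds dissolved in acetone (3% of final volume), suspended in 50/50 acetone–water with PEG400 surfactant. Disease rated visually.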

Phytophthora infestans = test: whole plant or invertebrate; conditions: tomato seedlings
Zymoseptoria tritici = test: Test E: preventive spray on wheat seedlings, wheat leaf blotch, visual disease rating
How it was run: as §1

[3] = 250 ppm, 100 = 100% disease control, 0 = no control

Cn1ncc(O)c(C(=O)Nc2ccccc2C(F)(F)F)c1=O [Compound 122]
Test C disease control rating (Botrytis cinerea; [3]): 0%
Test B disease control rating (Plasmopara viticola; [3]): 98%
Test F disease control rating [1, 3]: 86%
Test A disease control rating (Phakopsora pachyrhizi; [3]): 0%
Test G disease control rating [2, 3]: 96%
Test D disease control rating (Phytophthora infestans; [3]): 95%
Test E disease control rating (Zymoseptoria tritici; [3]): 96%

Cn1ncc(O)c(C(=O)Nc2ccc(F)cc2Cl)c1=O [Compound 134]
Test C disease control rating (Botrytis cinerea; [3]): 0%
Test B disease control rating (Plasmopara viticola; [3]): 92%
Test F disease control rating [1, 3]: 32%
Test A disease control rating (Phakopsora pachyrhizi; [3]): 75%
Test G disease control rating [2, 3]: 90%
Test D disease control rating (Phytophthora infestans; [3]): 0%
Test E disease control rating (Zymoseptoria tritici; [3]): 45%

CONc1cnn(C)c(=O)c1C(=O)Nc1ccc(OC(F)(F)F)cc1 [Compound 127]
Test C disease control rating (Botrytis cinerea; [3]): 0%
Test B disease control rating (Plasmopara viticola; [3]): 23%
Test F disease control rating [1, 3]: 0%
Test A disease control rating (Phakopsora pachyrhizi; [3]): 0%
Test G disease control rating [2, 3]: 0%
Test D disease control rating (Phytophthora infestans; [3]): 0%
Test E disease control rating (Zymoseptoria tritici; [3]): 27%

Cn1ncc([O-])c(C(=O)Nc2ccc(S(F)(F)(F)(F)F)cc2)c1=O.[Na+] [Compound 113]
Test C disease control rating (Botrytis cinerea; [3]): 0%
Test B disease control rating (Plasmopara viticola; [3]): 96%
Test F disease control rating [1, 3]: 94%
Test A disease control rating (Phakopsora pachyrhizi; [3]): 73%
Test G disease control rating [2, 3]: 90%
Test D disease control rating (Phytophthora infestans; [3]): 81%
Test E disease control rating (Zymoseptoria tritici; [3]): 79%

Cn1ncc(O)c(C(=O)Nc2ccc(CC(F)(F)F)cc2)c1=O [Compound 140]
Test C disease control rating (Botrytis cinerea; [3]): 0%
Test B disease control rating (Plasmopara viticola; [3]): 100%
Test F disease control rating [1, 3]: 99%
Test A disease control rating (Phakopsora pachyrhizi; [3]): 0%
Test G disease control rating [2, 3]: 27%
Test D disease control rating (Phytophthora infestans; [3]): 96%
Test E disease control rating (Zymoseptoria tritici; [3]): 88%

CON(C)c1cnn(C)c(=O)c1C(=O)Nc1ccc(OC(F)(F)F)cc1 [Compound 135]
Test C disease control rating (Botrytis cinerea; [3]): 0%
Test B disease control rating (Plasmopara viticola; [3]): 27%
Test F disease control rating [1, 3]: 0%
Test A disease control rating (Phakopsora pachyrhizi; [3]): 0%
Test G disease control rating [2, 3]: 0%
Test D disease control rating (Phytophthora infestans; [3]): 0%
Test E disease control rating (Zymoseptoria tritici; [3]): 2%

O=C(Nc1ccc(OC(F)(F)F)cc1)c1c(O)cnn(C2CC2)c1=O [Compound 120]
Test C disease control rating (Botrytis cinerea; [3]): 0%
Test B disease control rating (Plasmopara viticola; [3]): 98%
Test F disease control rating [1, 3]: 96%
Test A disease control rating (Phakopsora pachyrhizi; [3]): 13%
Test G disease control rating [2, 3]: 89%
Test D disease control rating (Phytophthora infestans; [3]): 97%

COc1ccc(Cn2ncc(O)c(C(=O)Nc3ccc(OC(F)(F)F)cc3)c2=O)cc1 [Compound 115]
Test C disease control rating (Botrytis cinerea; [3]): 0%
Test B disease control rating (Plasmopara viticola; [3]): 0%
Test F disease control rating [1, 3]: 68%
Test A disease control rating (Phakopsora pachyrhizi; [3]): 0%
Test G disease control rating [2, 3]: 0%
Test D disease control rating (Phytophthora infestans; [3]): 0%
Test E disease control rating (Zymoseptoria tritici; [3]): 26%

Cn1ncc(O)c(C(=O)Nc2cnc(Cl)cn2)c1=O [Compound 114]
Test C disease control rating (Botrytis cinerea; [3]): 0%
Test B disease control rating (Plasmopara viticola; [3]): 90%
Test F disease control rating [1, 3]: 95%
Test A disease control rating (Phakopsora pachyrhizi; [3]): 39%
Test G disease control rating [2, 3]: 0%
Test D disease control rating (Phytophthora infestans; [3]): 80%
Test E disease control rating (Zymoseptoria tritici; [3]): 55%

Cn1ncc(O)c(C(=O)Nc2ccc(F)cc2F)c1=O [Compound 144]
Test C disease control rating (Botrytis cinerea; [3]): 0%
Test B disease control rating (Plasmopara viticola; [3]): 100%
Test F disease control rating [1, 3]: 99%
Test A disease control rating (Phakopsora pachyrhizi; [3]): 0%
Test G disease control rating [2, 3]: 87%
Test D disease control rating (Phytophthora infestans; [3]): 99%

CNc1cnn(C)c(=O)c1C(=O)Nc1ccc(OC(F)(F)F)cc1 [Compound 146]
Test C disease control rating (Botrytis cinerea; [3]): 0%
Test B disease control rating (Plasmopara viticola; [3]): 10%
Test F disease control rating [1, 3]: 0%
Test A disease control rating (Phakopsora pachyrhizi; [3]): 0%
Test G disease control rating [2, 3]: 0%
Test D disease control rating (Phytophthora infestans; [3]): 0%
Test E disease control rating (Zymoseptoria tritici; [3]): 0%

CSc1cnn(C)c(=O)c1C(=O)Nc1ccc(OC(F)(F)F)cc1 [Compound 109]
Test C disease control rating (Botrytis cinerea; [3]): 0%
Test B disease control rating (Plasmopara viticola; [3]): 0%
Test F disease control rating [1, 3]: 0%
Test A disease control rating (Phakopsora pachyrhizi; [3]): 0%
Test G disease control rating [2, 3]: 55%
Test D disease control rating (Phytophthora infestans; [3]): 0%
Test E disease control rating (Zymoseptoria tritici; [3]): 0%

Cn1ncc(O)c(C(=O)Nc2ccc(OC(F)(F)F)cc2Cl)c1=O [Compound 142]
Test C disease control rating (Botrytis cinerea; [3]): 26%
Test B disease control rating (Plasmopara viticola; [3]): 99%
Test F disease control rating [1, 3]: 99%
Test A disease control rating (Phakopsora pachyrhizi; [3]): 71%
Test G disease control rating [2, 3]: 98%
Test D disease control rating (Phytophthora infestans; [3]): 92%
Test E disease control rating (Zymoseptoria tritici; [3]): 77%

Cn1ncc(O)c(C(=O)Nc2ccc(Cl)cc2F)c1=O [Compound 123]
Test C disease control rating (Botrytis cinerea; [3]): 63%
Test B disease control rating (Plasmopara viticola; [3]): 90%
Test F disease control rating [1, 3]: 100%
Test A disease control rating (Phakopsora pachyrhizi; [3]): 81%
Test G disease control rating [2, 3]: 92%
Test D disease control rating (Phytophthora infestans; [3]): 90%
Test E disease control rating (Zymoseptoria tritici; [3]): 91%

Cn1ncc(OC/C=C/c2ccccc2)c(C(=O)Nc2ccc(OC(F)(F)F)cc2)c1=O [Compound 132]
Test C disease control rating (Botrytis cinerea; [3]): 0%
Test B disease control rating (Plasmopara viticola; [3]): 25%
Test F disease control rating [1, 3]: 91%
Test A disease control rating (Phakopsora pachyrhizi; [3]): 0%
Test G disease control rating [2, 3]: 97%
Test D disease control rating (Phytophthora infestans; [3]): 17%
Test E disease control rating (Zymoseptoria tritici; [3]): 50%

Cn1ncc(O)c(C(=O)Nc2ccc(C(F)(F)F)cc2Cl)c1=O [Compound 137]
Test C disease control rating (Botrytis cinerea; [3]): 0%
Test B disease control rating (Plasmopara viticola; [3]): 100%
Test F disease control rating [1, 3]: 96%
Test A disease control rating (Phakopsora pachyrhizi; [3]): 0%
Test G disease control rating [2, 3]: 47%
Test D disease control rating (Phytophthora infestans; [3]): 97%
Test E disease control rating (Zymoseptoria tritici; [3]): 30%

Cn1ncc(S(C)(=O)=O)c(C(=O)Nc2ccc(OC(F)(F)F)cc2)c1=O [Compound 111]
Test C disease control rating (Botrytis cinerea; [3]): 0%
Test B disease control rating (Plasmopara viticola; [3]): 0%
Test F disease control rating [1, 3]: 96%
Test A disease control rating (Phakopsora pachyrhizi; [3]): 98%
Test G disease control rating [2, 3]: 0%
Test D disease control rating (Phytophthora infestans; [3]): 9%
Test E disease control rating (Zymoseptoria tritici; [3]): 93%

Cn1ncc(O)c(C(=O)Nc2ccc(C(F)(F)F)cc2C(F)(F)F)c1=O [Compound 147]
Test C disease control rating (Botrytis cinerea; [3]): 0%
Test B disease control rating (Plasmopara viticola; [3]): 97%
Test F disease control rating [1, 3]: 99%
Test A disease control rating (Phakopsora pachyrhizi; [3]): 0%
Test G disease control rating [2, 3]: 98%
Test D disease control rating (Phytophthora infestans; [3]): 99%
Test E disease control rating (Zymoseptoria tritici; [3]): 87%

CN(C)c1cnn(C)c(=O)c1C(=O)Nc1ccc(C(F)(F)F)cc1F [Compound 128]
Test C disease control rating (Botrytis cinerea; [3]): 0%
Test B disease control rating (Plasmopara viticola; [3]): 100%
Test F disease control rating [1, 3]: 68%
Test A disease control rating (Phakopsora pachyrhizi; [3]): 79%
Test G disease control rating [2, 3]: 0%
Test D disease control rating (Phytophthora infestans; [3]): 67%

Cn1ncc(OS(=O)(=O)Cc2ccccc2)c(C(=O)Nc2ccc(OC(F)(F)F)cc2)c1=O [Compound 116]
Test C disease control rating (Botrytis cinerea; [3]): 0%
Test B disease control rating (Plasmopara viticola; [3]): 99%
Test F disease control rating [1, 3]: 97%
Test A disease control rating (Phakopsora pachyrhizi; [3]): 25%
Test G disease control rating [2, 3]: 0%
Test D disease control rating (Phytophthora infestans; [3]): 0%
Test E disease control rating (Zymoseptoria tritici; [3]): 60%

CCCC[N+](CCCC)(CCCC)CCCC.Cn1ncc([O-])c(C(=O)Nc2ccc(S(F)(F)(F)(F)F)cc2)c1=O [Compound 143]
Test C disease control rating (Botrytis cinerea; [3]): 0%
Test B disease control rating (Plasmopara viticola; [3]): 100%
Test F disease control rating [1, 3]: 94%
Test A disease control rating (Phakopsora pachyrhizi; [3]): 62%
Test G disease control rating [2, 3]: 69%
Test D disease control rating (Phytophthora infestans; [3]): 70%
Test E disease control rating (Zymoseptoria tritici; [3]): 88%

Cn1ncc([S+](C)[O-])c(C(=O)Nc2ccc(OC(F)(F)F)cc2)c1=O (centres unmarked) [Compound 110]
Test C disease control rating (Botrytis cinerea; 50 ppm): 0%
Test B disease control rating (Plasmopara viticola; 50 ppm): 0%
Test F disease control rating ([1]; 50 ppm): 74%
Test A disease control rating (Phakopsora pachyrhizi; 50 ppm): 92%
Test G disease control rating ([2]; 50 ppm): 0%
Test D disease control rating (Phytophthora infestans; 50 ppm): 0%
Test E disease control rating (Zymoseptoria tritici; 50 ppm): 88%

COC(=O)c1ccc(NC(=O)c2c(O)cnn(C)c2=O)cc1 [Compound 121]
Test C disease control rating (Botrytis cinerea; [3]): 0%
Test B disease control rating (Plasmopara viticola; [3]): 86%
Test F disease control rating [1, 3]: 80%
Test A disease control rating (Phakopsora pachyrhizi; [3]): 0%
Test G disease control rating [2, 3]: 0%
Test D disease control rating (Phytophthora infestans; [3]): 99%
Test E disease control rating (Zymoseptoria tritici; [3]): 14%
